{
  "source": "paper PMC4076210",
  "about": "“Discovery of Novel AKT Inhibitors with Enhanced Anti-Tumor Effects in Combination with the MEK Inhibitor” (PLoS ONE, 2014)",
  "assay_type_in_all_cases": "biochemical",
  "key": {"DDR2(h)": {"target": "T1, DDR2(h) (Homo sapiens, UniProt Q16832)", "T1 construct": "purchased Millipore KinaseProfiler", "T1 sequence (Q16832 22-855)": "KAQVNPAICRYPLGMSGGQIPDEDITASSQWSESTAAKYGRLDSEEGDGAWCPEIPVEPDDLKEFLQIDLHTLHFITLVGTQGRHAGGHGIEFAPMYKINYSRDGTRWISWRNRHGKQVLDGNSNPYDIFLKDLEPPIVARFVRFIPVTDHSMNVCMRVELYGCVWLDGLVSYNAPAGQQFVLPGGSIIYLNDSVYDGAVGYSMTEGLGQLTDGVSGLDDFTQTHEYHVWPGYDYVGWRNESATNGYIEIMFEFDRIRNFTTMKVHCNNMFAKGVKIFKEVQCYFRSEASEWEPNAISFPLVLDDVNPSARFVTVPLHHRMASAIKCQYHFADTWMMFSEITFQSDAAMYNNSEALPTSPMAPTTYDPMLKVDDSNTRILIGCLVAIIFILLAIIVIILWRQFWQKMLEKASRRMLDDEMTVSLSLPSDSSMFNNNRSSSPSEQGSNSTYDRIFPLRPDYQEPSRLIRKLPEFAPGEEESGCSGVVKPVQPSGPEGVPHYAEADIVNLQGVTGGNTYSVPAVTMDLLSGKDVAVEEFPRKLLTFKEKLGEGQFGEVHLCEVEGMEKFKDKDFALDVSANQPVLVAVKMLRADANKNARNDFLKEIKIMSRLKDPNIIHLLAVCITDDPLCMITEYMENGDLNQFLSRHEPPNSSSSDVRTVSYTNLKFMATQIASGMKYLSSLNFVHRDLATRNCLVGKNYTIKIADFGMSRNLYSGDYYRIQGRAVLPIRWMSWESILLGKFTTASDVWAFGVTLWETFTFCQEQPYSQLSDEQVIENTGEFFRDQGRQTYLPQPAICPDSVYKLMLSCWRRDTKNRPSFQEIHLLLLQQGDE", "experiment": "Kinase panel"}, "Fms(h)": {"target": "T2, Fms(h) (Homo sapiens, UniProt P07333)", "T2 construct": "purchased Millipore KinaseProfiler", "T2 sequence (P07333 20-972)": "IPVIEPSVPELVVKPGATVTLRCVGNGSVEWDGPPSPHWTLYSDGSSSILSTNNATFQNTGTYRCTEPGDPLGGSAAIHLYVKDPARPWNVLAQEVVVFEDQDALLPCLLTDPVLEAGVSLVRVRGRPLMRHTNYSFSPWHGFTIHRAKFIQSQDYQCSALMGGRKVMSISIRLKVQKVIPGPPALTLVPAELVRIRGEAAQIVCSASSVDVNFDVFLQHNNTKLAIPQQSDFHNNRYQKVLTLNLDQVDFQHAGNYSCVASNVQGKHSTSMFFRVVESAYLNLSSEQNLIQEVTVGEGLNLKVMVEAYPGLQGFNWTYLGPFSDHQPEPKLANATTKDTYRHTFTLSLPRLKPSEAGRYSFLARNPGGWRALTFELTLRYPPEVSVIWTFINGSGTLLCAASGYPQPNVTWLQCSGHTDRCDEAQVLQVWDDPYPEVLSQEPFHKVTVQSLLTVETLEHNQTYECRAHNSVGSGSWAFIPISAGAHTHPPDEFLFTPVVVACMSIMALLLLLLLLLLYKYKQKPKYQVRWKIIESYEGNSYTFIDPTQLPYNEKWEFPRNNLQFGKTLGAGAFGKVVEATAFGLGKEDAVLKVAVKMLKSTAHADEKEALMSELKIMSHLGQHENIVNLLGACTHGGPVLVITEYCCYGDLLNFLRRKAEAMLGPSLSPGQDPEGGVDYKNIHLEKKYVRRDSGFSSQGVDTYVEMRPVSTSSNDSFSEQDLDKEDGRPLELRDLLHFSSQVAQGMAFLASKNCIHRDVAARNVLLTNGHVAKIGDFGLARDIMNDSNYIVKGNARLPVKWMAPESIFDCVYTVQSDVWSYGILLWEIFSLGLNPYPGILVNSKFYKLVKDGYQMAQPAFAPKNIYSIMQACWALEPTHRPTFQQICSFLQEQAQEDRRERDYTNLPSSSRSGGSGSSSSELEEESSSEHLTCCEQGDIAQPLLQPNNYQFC", "experiment": "Kinase panel"}, "IGF-1R(h)": {"target": "T3, IGF-1R(h) (Homo sapiens, UniProt P08069)", "T3 construct": "purchased Millipore KinaseProfiler", "T3 sequence (P08069 31-1367)": "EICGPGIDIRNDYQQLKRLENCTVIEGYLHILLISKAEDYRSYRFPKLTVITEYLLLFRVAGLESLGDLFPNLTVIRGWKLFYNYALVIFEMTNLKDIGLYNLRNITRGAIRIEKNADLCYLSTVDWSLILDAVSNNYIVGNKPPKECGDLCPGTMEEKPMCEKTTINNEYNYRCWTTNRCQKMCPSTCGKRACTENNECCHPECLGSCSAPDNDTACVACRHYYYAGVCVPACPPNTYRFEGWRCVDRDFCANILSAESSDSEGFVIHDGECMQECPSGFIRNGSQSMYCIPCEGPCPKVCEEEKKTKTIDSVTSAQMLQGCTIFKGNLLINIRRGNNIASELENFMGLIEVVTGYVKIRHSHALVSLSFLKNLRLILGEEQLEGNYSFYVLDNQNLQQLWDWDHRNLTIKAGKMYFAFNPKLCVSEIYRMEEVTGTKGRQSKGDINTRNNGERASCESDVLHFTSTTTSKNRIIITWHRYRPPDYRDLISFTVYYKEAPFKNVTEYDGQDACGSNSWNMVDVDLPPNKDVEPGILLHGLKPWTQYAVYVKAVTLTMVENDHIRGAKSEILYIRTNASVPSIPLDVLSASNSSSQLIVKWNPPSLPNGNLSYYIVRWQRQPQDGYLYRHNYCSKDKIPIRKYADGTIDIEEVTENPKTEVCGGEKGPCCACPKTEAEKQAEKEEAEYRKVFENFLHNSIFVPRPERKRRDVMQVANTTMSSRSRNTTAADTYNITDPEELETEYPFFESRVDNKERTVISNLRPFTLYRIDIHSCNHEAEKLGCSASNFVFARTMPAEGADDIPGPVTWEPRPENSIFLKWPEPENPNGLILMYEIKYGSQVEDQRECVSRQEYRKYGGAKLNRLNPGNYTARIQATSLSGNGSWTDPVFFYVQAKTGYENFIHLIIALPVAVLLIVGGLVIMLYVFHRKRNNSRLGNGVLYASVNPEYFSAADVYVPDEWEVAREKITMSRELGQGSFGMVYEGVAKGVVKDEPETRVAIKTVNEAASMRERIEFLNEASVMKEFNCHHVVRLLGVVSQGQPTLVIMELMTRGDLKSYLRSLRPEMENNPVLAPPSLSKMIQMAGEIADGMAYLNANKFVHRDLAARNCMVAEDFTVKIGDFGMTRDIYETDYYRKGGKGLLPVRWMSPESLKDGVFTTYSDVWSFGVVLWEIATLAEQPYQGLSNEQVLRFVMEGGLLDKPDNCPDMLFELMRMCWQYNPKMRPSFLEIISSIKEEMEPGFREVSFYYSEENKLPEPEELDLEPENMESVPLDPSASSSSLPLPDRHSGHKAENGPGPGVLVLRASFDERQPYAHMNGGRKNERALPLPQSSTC", "experiment": "Kinase panel"}, "PKCμ": {"target": "PKCμ (Homo sapiens, UniProt Q15139)", "experiment": "Kinase IC50 assay"}, "Src(T341M)(h)": {"target": "T4, Src(T341M)(h) (Homo sapiens, UniProt P12931, T341M)", "T4 construct": "purchased Millipore KinaseProfiler", "T4 sequence (P12931 whole entry T341M)": "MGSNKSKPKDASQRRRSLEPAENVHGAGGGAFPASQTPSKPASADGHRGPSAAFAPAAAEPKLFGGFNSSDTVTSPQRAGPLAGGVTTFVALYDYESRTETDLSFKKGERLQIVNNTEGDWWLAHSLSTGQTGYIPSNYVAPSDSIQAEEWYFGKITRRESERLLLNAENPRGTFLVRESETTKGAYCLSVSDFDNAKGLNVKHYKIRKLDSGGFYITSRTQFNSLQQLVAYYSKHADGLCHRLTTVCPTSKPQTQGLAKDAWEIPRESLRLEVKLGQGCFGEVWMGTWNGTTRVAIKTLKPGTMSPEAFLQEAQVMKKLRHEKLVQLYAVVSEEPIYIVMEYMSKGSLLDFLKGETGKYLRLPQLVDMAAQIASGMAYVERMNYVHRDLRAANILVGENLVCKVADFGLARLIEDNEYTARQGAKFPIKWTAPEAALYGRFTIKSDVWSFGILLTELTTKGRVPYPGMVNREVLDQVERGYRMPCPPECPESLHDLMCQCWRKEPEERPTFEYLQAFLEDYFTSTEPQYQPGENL", "experiment": "Kinase panel"}, "MAPKAP-K3(h)": {"target": "T5, MAPKAP-K3(h) (Homo sapiens, UniProt Q16644)", "T5 construct": "purchased Millipore KinaseProfiler", "T5 sequence (Q16644 whole entry)": "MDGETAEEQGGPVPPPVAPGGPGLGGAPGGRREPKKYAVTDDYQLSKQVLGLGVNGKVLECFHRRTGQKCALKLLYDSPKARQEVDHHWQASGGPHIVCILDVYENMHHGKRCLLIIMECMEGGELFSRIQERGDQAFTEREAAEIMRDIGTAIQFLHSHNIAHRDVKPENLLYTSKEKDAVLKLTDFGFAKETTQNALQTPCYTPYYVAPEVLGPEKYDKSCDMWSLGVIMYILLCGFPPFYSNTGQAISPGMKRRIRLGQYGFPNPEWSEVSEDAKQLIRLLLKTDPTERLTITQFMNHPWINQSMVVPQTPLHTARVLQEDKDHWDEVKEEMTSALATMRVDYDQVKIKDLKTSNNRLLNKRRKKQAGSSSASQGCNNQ", "experiment": "Kinase panel"}, "PKCβII(h)": {"target": "T6, PKCβII(h) (Homo sapiens, UniProt P05771)", "T6 construct": "purchased Millipore KinaseProfiler", "T6 sequence (P05771 1-673 isoform P05771-2)": "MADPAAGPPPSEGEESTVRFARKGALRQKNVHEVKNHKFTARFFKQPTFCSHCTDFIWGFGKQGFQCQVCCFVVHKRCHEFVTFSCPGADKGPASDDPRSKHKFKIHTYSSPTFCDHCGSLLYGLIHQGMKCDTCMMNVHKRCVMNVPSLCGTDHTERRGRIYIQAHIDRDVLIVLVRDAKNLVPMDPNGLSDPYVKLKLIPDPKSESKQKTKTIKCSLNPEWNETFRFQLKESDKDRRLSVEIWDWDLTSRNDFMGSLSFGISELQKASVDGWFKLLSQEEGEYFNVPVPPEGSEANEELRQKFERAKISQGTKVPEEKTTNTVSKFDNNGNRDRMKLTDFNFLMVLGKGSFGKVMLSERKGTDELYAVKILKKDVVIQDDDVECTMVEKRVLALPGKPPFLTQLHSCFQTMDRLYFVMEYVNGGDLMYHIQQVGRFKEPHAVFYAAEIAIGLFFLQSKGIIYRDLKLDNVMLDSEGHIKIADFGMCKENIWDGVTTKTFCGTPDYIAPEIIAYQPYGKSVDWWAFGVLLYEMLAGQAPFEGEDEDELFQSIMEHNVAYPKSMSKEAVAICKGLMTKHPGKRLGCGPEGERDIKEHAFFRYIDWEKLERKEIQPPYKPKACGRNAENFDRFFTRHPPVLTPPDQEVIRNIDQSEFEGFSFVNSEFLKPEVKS", "experiment": "Kinase panel"}, "EphB2(h)": {"target": "T7, EphB2(h) (Homo sapiens, UniProt P29323)", "T7 construct": "purchased Millipore KinaseProfiler", "T7 sequence (P29323 19-1055)": "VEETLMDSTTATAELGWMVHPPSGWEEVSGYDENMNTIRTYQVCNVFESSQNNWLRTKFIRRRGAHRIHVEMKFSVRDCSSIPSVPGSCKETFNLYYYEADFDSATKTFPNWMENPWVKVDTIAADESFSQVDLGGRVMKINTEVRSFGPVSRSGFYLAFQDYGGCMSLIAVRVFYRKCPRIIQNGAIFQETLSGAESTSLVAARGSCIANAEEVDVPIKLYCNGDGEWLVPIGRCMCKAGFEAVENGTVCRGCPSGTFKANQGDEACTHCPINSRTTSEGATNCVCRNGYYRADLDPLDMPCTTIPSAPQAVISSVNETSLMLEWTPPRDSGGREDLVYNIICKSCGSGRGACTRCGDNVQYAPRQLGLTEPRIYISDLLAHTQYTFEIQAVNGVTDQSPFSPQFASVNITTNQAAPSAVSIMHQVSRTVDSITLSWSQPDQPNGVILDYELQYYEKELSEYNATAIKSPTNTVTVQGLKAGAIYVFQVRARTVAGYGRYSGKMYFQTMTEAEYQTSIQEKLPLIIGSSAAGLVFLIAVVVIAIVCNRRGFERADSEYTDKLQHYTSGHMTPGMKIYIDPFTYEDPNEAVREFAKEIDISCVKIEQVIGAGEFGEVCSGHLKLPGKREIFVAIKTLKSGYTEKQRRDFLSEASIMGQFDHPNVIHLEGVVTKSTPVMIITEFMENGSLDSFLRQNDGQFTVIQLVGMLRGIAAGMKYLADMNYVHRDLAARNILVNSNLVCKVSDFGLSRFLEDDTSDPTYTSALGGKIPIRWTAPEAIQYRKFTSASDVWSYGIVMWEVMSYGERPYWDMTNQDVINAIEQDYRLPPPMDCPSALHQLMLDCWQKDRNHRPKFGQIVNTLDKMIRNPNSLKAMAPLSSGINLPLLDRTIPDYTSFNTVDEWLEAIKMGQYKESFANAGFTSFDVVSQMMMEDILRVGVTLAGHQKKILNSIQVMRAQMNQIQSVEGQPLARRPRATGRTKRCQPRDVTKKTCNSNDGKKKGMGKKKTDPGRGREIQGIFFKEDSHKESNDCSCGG", "experiment": "Kinase panel"}, "FGFR4(h)": {"target": "T8, FGFR4(h) (Homo sapiens, UniProt P22455)", "T8 construct": "purchased Millipore KinaseProfiler", "T8 sequence (P22455 22-802)": "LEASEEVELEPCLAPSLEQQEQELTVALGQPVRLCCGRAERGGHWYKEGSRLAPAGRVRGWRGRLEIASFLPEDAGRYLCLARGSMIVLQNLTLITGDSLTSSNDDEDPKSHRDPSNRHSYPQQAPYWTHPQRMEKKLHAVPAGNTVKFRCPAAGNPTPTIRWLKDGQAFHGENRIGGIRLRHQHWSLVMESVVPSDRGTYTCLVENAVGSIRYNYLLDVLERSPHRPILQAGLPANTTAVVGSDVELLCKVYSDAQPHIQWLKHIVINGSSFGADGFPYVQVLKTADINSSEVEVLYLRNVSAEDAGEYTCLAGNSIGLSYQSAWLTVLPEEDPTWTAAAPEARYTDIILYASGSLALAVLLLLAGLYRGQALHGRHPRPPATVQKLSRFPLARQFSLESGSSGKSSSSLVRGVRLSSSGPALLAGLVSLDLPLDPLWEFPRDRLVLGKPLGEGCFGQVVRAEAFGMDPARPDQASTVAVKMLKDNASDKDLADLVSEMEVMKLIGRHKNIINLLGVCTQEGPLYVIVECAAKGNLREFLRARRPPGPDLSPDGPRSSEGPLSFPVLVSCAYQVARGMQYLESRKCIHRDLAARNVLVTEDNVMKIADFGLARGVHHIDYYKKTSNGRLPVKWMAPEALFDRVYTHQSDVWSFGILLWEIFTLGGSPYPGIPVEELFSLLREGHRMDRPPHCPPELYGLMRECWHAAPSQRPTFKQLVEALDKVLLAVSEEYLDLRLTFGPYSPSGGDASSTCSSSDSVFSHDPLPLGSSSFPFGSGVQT", "experiment": "Kinase panel"}},
  "note": "Like-named read-outs stand apart in the source and are kept apart here.",
  "data": [
    {"compound": "Cn1ncc(Cl)c1-c1cc(C(=O)N[C@H](CN)Cc2ccc(F)c(F)c2)oc1Cl", "note": "[GSK2141795]", "values": [
      {"measurement": "inhibition at 0.5 µM", "setting": "DDR2(h); 0.5 µM, read-out: % Inhibition", "result": 3, "unit": "%"},
      {"measurement": "inhibition at 10 µM", "setting": "DDR2(h); 10 µM, read-out: % Inhibition", "result": 12, "unit": "%"},
      {"measurement": "inhibition at 0.5 µM", "setting": "Fms(h); 0.5 µM, read-out: % Inhibition", "result": -13, "unit": "%"},
      {"measurement": "inhibition at 10 µM", "setting": "Fms(h); 10 µM, read-out: % Inhibition", "result": 3, "unit": "%"},
      {"measurement": "inhibition at 0.5 µM", "setting": "IGF-1R(h); 0.5 µM, read-out: % Inhibition", "result": 6, "unit": "%"},
      {"measurement": "inhibition at 10 µM", "setting": "IGF-1R(h); 10 µM, read-out: % Inhibition", "result": 31, "unit": "%"},
      {"measurement": "IC50", "setting": "PKCμ", "result": 690, "unit": "nM"},
      {"measurement": "inhibition at 0.5 µM", "setting": "Src(T341M)(h); 0.5 µM, read-out: % Inhibition", "result": 34, "unit": "%"},
      {"measurement": "inhibition at 10 µM", "setting": "Src(T341M)(h); 10 µM, read-out: % Inhibition", "result": 88, "unit": "%"},
      {"measurement": "inhibition at 0.5 µM", "setting": "MAPKAP-K3(h); 0.5 µM, read-out: % Inhibition", "result": -8, "unit": "%"},
      {"measurement": "inhibition at 10 µM", "setting": "MAPKAP-K3(h); 10 µM, read-out: % Inhibition", "result": -2, "unit": "%"},
      {"measurement": "inhibition at 0.5 µM", "setting": "PKCβII(h); 0.5 µM, read-out: % Inhibition", "result": 44, "unit": "%"},
      {"measurement": "inhibition at 10 µM", "setting": "PKCβII(h); 10 µM, read-out: % Inhibition", "result": 91, "unit": "%"},
      {"measurement": "inhibition at 0.5 µM", "setting": "EphB2(h); 0.5 µM, read-out: % Inhibition", "result": -8, "unit": "%"},
      {"measurement": "inhibition at 10 µM", "setting": "EphB2(h); 10 µM, read-out: % Inhibition", "result": 0, "unit": "%"},
      {"measurement": "inhibition at 0.5 µM", "setting": "FGFR4(h); 0.5 µM, read-out: % Inhibition", "result": 24, "unit": "%"},
      {"measurement": "inhibition at 10 µM", "setting": "FGFR4(h); 10 µM, read-out: % Inhibition", "result": 19, "unit": "%"}
    ]},
    {"compound": "Cn1ncc(Cl)c1-c1cc(C(=O)N[C@H](CN)Cc2cccc(F)c2)sc1Cl", "note": "[GSK2110183]", "values": [
      {"measurement": "inhibition at 0.5 µM", "setting": "DDR2(h)", "result": 1, "unit": "%"},
      {"measurement": "inhibition at 10 µM", "setting": "DDR2(h)", "result": 6, "unit": "%"},
      {"measurement": "inhibition at 0.5 µM", "setting": "Fms(h)", "result": -1, "unit": "%"},
      {"measurement": "inhibition at 10 µM", "setting": "Fms(h)", "result": 3, "unit": "%"},
      {"measurement": "inhibition at 0.5 µM", "setting": "IGF-1R(h)", "result": 7, "unit": "%"},
      {"measurement": "inhibition at 10 µM", "setting": "IGF-1R(h)", "result": 25, "unit": "%"},
      {"measurement": "IC50", "setting": "PKCμ", "result": "> 1000", "unit": "nM"},
      {"measurement": "inhibition at 0.5 µM", "setting": "Src(T341M)(h)", "result": 24, "unit": "%"},
      {"measurement": "inhibition at 10 µM", "setting": "Src(T341M)(h)", "result": 83, "unit": "%"},
      {"measurement": "inhibition at 0.5 µM", "setting": "MAPKAP-K3(h)", "result": 4, "unit": "%"},
      {"measurement": "inhibition at 10 µM", "setting": "MAPKAP-K3(h)", "result": 10, "unit": "%"},
      {"measurement": "inhibition at 0.5 µM", "setting": "PKCβII(h)", "result": 2, "unit": "%"},
      {"measurement": "inhibition at 10 µM", "setting": "PKCβII(h)", "result": 75, "unit": "%"},
      {"measurement": "inhibition at 0.5 µM", "setting": "EphB2(h)", "result": -8, "unit": "%"},
      {"measurement": "inhibition at 10 µM", "setting": "EphB2(h)", "result": 4, "unit": "%"},
      {"measurement": "inhibition at 0.5 µM", "setting": "FGFR4(h)", "result": 0, "unit": "%"},
      {"measurement": "inhibition at 10 µM", "setting": "FGFR4(h)", "result": 19, "unit": "%"}
    ]}
  ]
}
